Experimental data from patent publication US10124007B2, “Combination of PI3K-inhibitors” (BAYER PHARMA AKTIENGESELLSCHAFT, priority 2013, dated 2018).
“And” between values parts separate entries of the source, which are not always exact repeats. Equal values may be shown once.

Columns and labels:
[1] = tested on: LNCaP prostate cancer cells in bone; assay: Orthotopic LNCaP CRPC bone model in mice; format: in vivo; conditions: for Tumor growth (effect in words): LNCaP CRPC model; for Number of osteoclasts at tumor-bone interface (effect in words): TRAP staining; for Inhibition of progression of osteoblastic lesions / Growth/progression of osteoblastic lesions (effect in words): x-ray radiography; for Growth/progression of osteoblastic lesions (effect in words): lesion area
Excerpt: The monotherapy and the combination of compound A1 and radium 223 were further tested in an orthotopic model of LNCaP, a CRPC cell line in mice. The LNCaP cells are known to form osteoblastic and mixed lesions when inoculated to bone marrow cavity. We used this model for testing the effects of compound A1 and radium-223 as single agent and in combination on the growth of LNCaP prostate cancer cells in bone. The osteoblastic bone metastases was visualized by X-ray radiography about six weeks post tumor cell inoculation. Mice with established bone metastases were randomized and treated for 45 days. The following four experimental groups with 13-14 mice in each were included in the study:
1) Vehicle control (Compd A1 vehicle QD po)
2) Ra-223 300 kBq/kg (dosed twice at 4-week intervals)+vehicle QD po
3) Compd A1 75 mg/kg (po QD)
Body weights were determined twice a week. Blood samples were taken and the animals radiographed biweekly. The animals were sacrificed 45 days after dosing, or earlier if they were moribund. Terminal blood samples were taken. Tissue samples were collected and processed for gamma-counter measurements, microCT measurements and histomorphometry.

[2] = tested on: LNCaP; assay: WST-1 based proliferation assay, LNCaP; format: cell-based, human; conditions: for LNCaP cell proliferation (effect in words): WST-1, days 1-5
Protocol: (§1) The effects of PI3K inhibitor Compound A1 and radium 223 in MCF-7 and 4T1 breast cancer cells and PC-3 and LNCaP prostate cancer cells were investigated in vitro as single agent and in combination. The effects were studied by measuring cell proliferation and apoptosis. Radium 223 and the reference inhibitor doxorubicin were added at day 0. The PI3K inhibitor(s) was added at day −1 (24 hours before addition of Alpharadin) and at day 4. The following two concentrations of the inhibitors and two concentrations of radium 223 in 4 replicates were tested:
(§2) The effects on cell proliferation were studied using a WST-1 based proliferation assay and the effects on apoptosis were studied in parallel plates by measuring caspase 3/7 activity. The measurements were performed at 4 different time points, days 1, 2, 3 and 5. Caspase activity was normalized to the cell number obtained with the WST-1 assay in parallel plates.

[3] = tested on: PC-3; assay: WST-1 based proliferation assay, PC-3; format: cell-based, human; conditions: WST-1, days 1-5
Protocol: as §1, §2

[4] = tested on: 4T1; assay: WST-1 based proliferation assay, 4T1; format: cell-based, mouse; conditions: for 4T1 cell proliferation at lower dose (effect in words): lower (250 nM) dose
Protocol: as §1, §2

[5] = tested on: MCF-7; assay: WST-1 based proliferation assay, MCF-7; format: cell-based, human; conditions: WST-1, days 1-5
Protocol: as §1, §2

[6] = tested on: 4T1-GFP-fluorescent mouse breast cancer cells; assay: 4T1-GFP syngeneic breast cancer bone metastasis model in mice; format: in vivo, Balb/c mice; conditions: for Survival Days after Treatment, Average: average of 10 survival animals; for Survival Days after Treatment, Average / Survival Days after Treatment: radium 223 300 kBq/kg iv once, Compound A1 75 mg/kg po QD; for Survival Days after Treatment: individual survival animals 1-10; for Adrenal glands with metastasis / Ovaries with metastasis / Kidneys with metastasis: non-survival animals sacrificed at day 12 or 13; for Kidneys with metastasis: macroscopic findings and fluorescence imaging
Protocol: The monotherapy and the combination of compound A1 and radium 223 were tested in a syngeneic animal model that resembles the characteristics of breast cancer bone metastatic disease in humans. This model can be effectively used for testing the effects of cancer drug candidates on the metastasis of breast cancer cells to bone.
To this extend, 4T1-GFP-fluorescent mouse breast cancer cells were inoculated into the left cardiac ventricle of 4-5 weeks old female Balb/c mice. Within one-two weeks after the inoculation, the animals developed osteolytic bone metastases that can be visualized by GFP-fluorescence and X-ray radiography.
On day 7 post tumor cell inoculation, animals were randomized according to radiography and presence of tumor metastases. On day 7, animals were dosed with a single dose of radium 223 or vehicle, daily dose of PI3K inhibitor or a combination treatment with single dose of radium 223 and daily continuous dosing of PI3K inhibitor. Half of the animals (n=10) from each treatment group were sacrificed on day 13 after inoculation, or earlier when they were moribund, half of the animals (N=10) were sacrificed when they became moribund. The osteolytic lesions and whole body tumor burden were measured by x-ray and fluorescence imaging at sacrifice. Furthermore, tissue samples from the left and right tibia and femur were collected for further histomorphometric analysis. Tissue was embedded in paraffin for histomorphometric analysis of bone and tumor area.
Groups: Control group (vehicle) received Alpharadin vehicle (sodium citrate buffer), iv once and PEG/Wfi 60:40 pH 4.0, po QD; radium 223 group was given at 300 kBq/kg of radium 223, iv once and PEG/Wfi 60:40 pH 4.0, po QD; PI3K group was given 75 mg/kg of Compound A1, po QD and radium 223 vehicle, iv once; the combination group was given 300 kBq/kg of radium 223, iv once and 75 mg/kg of Compound A1, po QD;

[7] = tested on: MCF-7; assay: Caspase 3/7 apoptosis assay, MCF-7; format: cell-based, human; conditions: caspase 3/7 normalized to WST-1, day 2
Protocol: as §1, §2

[8] = tested on: patients with bone metastases; conditions: cited from earlier work
[9] = single dose 250 kBq per kg body weight; cited from earlier work
[10] = tested on: patients with CRPC (Castration Resistant Prostate Cancer) and bone metastases; conditions: cited from earlier work
[11] = fluorescence imaging at sacrifice

Compound	Tumor growth (effect in words) [1]	Number of osteoclasts at tumor-bone interface (effect in words) [1]	Inhibition of progression of osteoblastic lesions [1] [%]	Growth/progression of osteoblastic lesions (effect in words) [1]	LNCaP cell proliferation (effect in words) [2]	PC3 cell proliferation (effect in words) [3]	4T1 cell proliferation at lower dose (effect in words) [4]	MCF-7 cell proliferation (effect in words) [5]	Survival Days after Treatment, Average [6] [days]	Whole body tumor burden (effect in words) [6, 11]	Survival Days after Treatment [6]	Adrenal glands with metastasis [6] [%]	Ovaries with metastasis [6] [%]	Kidneys with metastasis [6] [%]	MCF-7 apoptosis induction / tumor cell death (effect in words) [7]	further results
COc1c(OC[C@H](O)CN2CCOCC2)ccc2c1N=C(NC(=O)c1cccnc1C)N1CCN=C21 [Compound A1, N-(8-{[(2R)-2-hydroxy-3-(morpholin-4-yl)propyl]oxy}-7-methoxy-2,3-dihydroimidazo[1,2-c]quinazolin-5-yl)-2-methylpyridine-3-carboxamide]	potently inhibited	decreased	50	significantly inhibited	strong anti-proliferative effects	better anti-proliferactive activity	only moderate inhibition	potent anti-proliferative activity	6.6	significantly decreased	6 days (5×) and 4 days and 8 days (4×)	61	56	17	only at high dose can induce apoptosis	Whole body tumor burden reduction ([6]; fluorescence imaging at sacrifice, day 13 after inoculation, 6 days of treatment): 67%; Whole body tumor burden (effect in words) ([6]; fluorescence imaging at sacrifice, listed as compound A1): decreased; Reduction of kidney metastases ([6]; frequency of soft tissue metastases): 73%; Relative tumor area in bone marrow area (effect in words) ([6]; histomorphometry, ANOVA p=0.099477): Trends of inhibition; Reduction in total osteolytic area ([6]; radiography at sacrifice): 53.2%; Total osteolytic area / tumor-induced osteolysis (effect in words) ([6]; radiography at sacrifice): strongly inhibited
COc1cccc2c1C(=O)c1c(O)c3c(c(O)c1C2=O)C[C@@](O)(C(=O)CO)C[C@@H]3O[C@H]1C[C@H](N)[C@H](O)[C@H](C)O1 [doxorubicin]	–	–	–	–	inhibited proliferation	inhibited proliferation	–	inhibited proliferation	–	–	–	–	–	–	–	4T1 cell proliferation (effect in words) ([4]; WST-1, days 1-5): inhibited proliferation
[Cl][223Ra][Cl] [radium 223, radium-223 dichloride]	potently inhibited	eradicated	56	significantly inhibited	–	moderate inhibition	only moderate inhibition	only slight inhibition	6.8	not statistically significant	8 days (4×) and 6 days (6×)	94	94	22	could not induce tumor cell death	Number of osteoclasts at tumor-bone interface (effect in words) ([1]; listed as Ra-223): decreased; LNCaP cell proliferation at high dose (effect in words) ([2]; high dose (1600 Bq/mL)): effective; 4T1 cell proliferation at higher dose (effect in words) ([4]; higher dose): strong anti-proliferative effects; Disease-related biomarkers (bone ALP, PSA) ([8]; Phase 2 studies): improves disease-related biomarkers; Pain ([8]; Phase 2 studies): reduces pain; Safety profile ([8]; phase 1 and 2 studies): favorable safety profile, with minimal myelotoxicity; Observed adverse reactions [9]: diarrhea and reversible myelosuppression; Median survival longer than placebo ([10]; in vivo): 2.8 months; Time to first skeletal-related event ([10]; in vivo): significantly prolonged; Reduction in risk of death compared with placebo ([10]; overall survival): 30.5%
